Patent US20240208934A1, “ULK1/2 INHIBITORS AND THEIR USE THEREOF” (LifeArc, priority 2021, published 2024)

test system: ULK; assay: ULK radiometric assay (33P incorporation onto MBP substrate, glass fiber capture filter); conditions: ULK Biochemical activity; 20 uM ATP, 0.2 mg/mL MBP; averages of at least two independent experiments
Description: ULK activity was measured using a radiometric assay, to measure the incorporation of radiolabelled ^33P onto MBP substrate using a glass fiber capture filter method. Reaction conditions were 0.2 mg/mL MBP, 20 uM ATP (0.25 μCi/well), 50 mM Tris HCl, pH7.5, 10 mM MgCl2, 0.1% beta-mercaptoethanol, 0.1 mM EGTA, 0.01% BSA. Ten point Half log Compound dilution series were prepared in 100% DMSO and added to the reaction to give final assay concentration of 10% DMSO. Compounds were tested in duplicate and values normalized to 10% DMSO only controls. The data were fitted to a four parameter fit equation and the IC50 values shown are averages of at least two independent experiments.

| IC50 [µM] | SMILES |
| --- | --- |
| < 0.2 | O=C1CCCCN1CCCNc1nc(Nc2cc(CO)ccc2Cl)ncc1C(F)(F)F [Example 26, 1-[3-[[2-[2-Chloro-5-(hydroxymethyl)anilino]-5-(trifluoromethyl)pyrimidin-4-yl]amino]propyl]piperidin-2-one] |
| < 0.2 | CN1CCc2cc(Nc3ncc(C4CC4)c(NCCCN4CCCC4=O)n3)ccc2C1 [Example 9, 1-[3-[[5-cyclopropyl-2-[(2-methyl-3,4-dihydro-1H-isoquinolin-6-yl)amino]pyrimidin-4-yl]amino]propyl]pyrrolidin-2-one] |
| 0.2 to 1 | COc1cc(C(=O)N2CCN(C)CC2)ccc1Nc1ncc(C(F)(F)F)c(NCCCN2CCCCC2=O)n1 [Example 41, 1-[3-[[2-[2-Methoxy-4-(4-methylpiperazine-1-carbonyl)anilino]-5-(trifluoromethyl)pyrimidin-4-yl]amino]propyl]piperidin-2-one] |
| ≥ 1 | CNC(=O)c1ccc(Nc2ncc(C(F)(F)F)c(NCCCN3CCCCC3=O)n2)c(OC)c1 [Example 39, 3-Methoxy-N-methyl-4-[[4-[3-(2-oxo-1-piperidyl)propylamino]-5-(trifluoromethyl)pyrimidin-2-yl]amino]benzamide] |
| ≥ 1 | COc1ccc(N2CCOCC2)cc1Nc1ncc(C(F)(F)F)c(NCCCN2CCCCC2=O)n1 [Example 32, 1-[3-[[2-(2-Methoxy-5-morpholino-anilino)-5-(trifluoromethyl)pyrimidin-4-yl]amino]propyl]piperidin-2-one] |
| 0.2 to 1 | FC(F)(F)c1cnc(Nc2ccc(N3CCOCC3)cc2)nc1NCCC1CCNCC1 [Example 89, N2-(4-morpholinophenyl)-N4-[2-(4-piperidyl)ethyl]-5-(trifluoromethyl)pyrimidine-2,4-diamine] |
| < 0.2 | FC(F)(F)c1cnc(Nc2cnn(C3CCNC3)c2)nc1NCc1cc[nH]n1 (stereo not drawn) [Example 85, N4-(1H-pyrazol-3-ylmethyl)-N2-(1-pyrrolidin-3-ylpyrazol-4-yl)-5-(trifluoromethyl)pyrimidine-2,4-diamine] |
| ≥ 1 | Fc1cccc(Nc2ncc(C(F)(F)F)c(NCCCN3CCCC3)n2)c1 [Example 5, N2-(3-fluorophenyl)-N4-(3-(pyrrolidin-1-yl)propyl)-5-(trifluoromethyl)pyrimidine-2,4-diamine] |
| < 0.2 | FC(F)(F)c1cnc(Nc2ccc3c(c2)CCNC3)nc1NCCc1cnc[nH]1 [Example 65, N4-[2-(1H-imidazol-5-yl)ethyl]-N2-(1,2,3,4-tetrahydroisoquinolin-6-yl)-5-(trifluoromethyl)pyrimidine-2,4-diamine] |
| < 0.2 | CN(C)Cc1cccc(Nc2ncc(C3CC3)c(NCCCN3CCCCC3=O)n2)c1 [Example 13, 1-(3-(5-Cyclopropyl-2-(3-((dimethylamino)methyl)phenylamino)pyrimidin-4-ylamino)propyl) piperidin-2-one] |
| ≥ 1 | COc1cc(COC(C)C)ccc1Nc1ncc(C(F)(F)F)c(NCCCN2CCCCC2=O)n1 [Example 35, 1-[3-[[2-[4-(Isopropoxymethyl)-2-methoxy-anilino]-5-(trifluoromethyl)pyrimidin-4-yl]amino]propyl]piperidin-2-one] |
| < 0.2 | COc1cc2c(cc1Nc1ncc(C(F)(F)F)c(NCCCN3CCCCC3=O)n1)CCNC2 [Example 4, 1-(3-((2-((7-Methoxy-1,2,3,4-tetrahydroisoquinolin-6-yl)amino)-5-(trifluoromethyl)pyrimidin-4-yl)amino)propyl)piperidin-2-one] |
| ≥ 1 | COc1cc2c(cc1Nc1ncc(C(F)(F)F)c(NC3CCN(S(C)(=O)=O)CC3)n1)CNCC2 [Example 72, N2-(6-methoxy-1,2,3,4-tetrahydroisoquinolin-7-yl)-N4-(1-methylsulfonyl-4-piperidyl)-5-(trifluoromethyl)pyrimidine-2,4-diamine] |
| < 0.2 | O=C(CCNc1nc(Nc2ccc3c(c2)CCNC3)ncc1C(F)(F)F)N1CCOCC1 [Example 67, 1-Morpholino-3-[[2-(1,2,3,4-tetrahydroisoquinolin-6-ylamino)-5-(trifluoromethyl)pyrimidin-4-yl]amino]propan-1-one] |
| < 0.2 | CNCc1ccc(OC)c(Nc2ncc(C(F)(F)F)c(NCCCN3CCCCC3=O)n2)c1 [Example 60, 1-[3-[[2-[2-Methoxy-5-(methylaminomethyl)anilino]-5-(trifluoromethyl)pyrimidin-4-yl]amino]propyl]piperidin-2-one] |
| 0.2 to 1 | FC(F)(F)c1cnc(Nc2ccc(N3CCOCC3)cc2)nc1NCC1CCNC1 (stereo not drawn) [Example 87, N2-(4-morpholinophenyl)-N4-(pyrrolidin-3-ylmethyl)-5-(trifluoromethyl)pyrimidine-2,4-diamine] |
| < 0.2 | O=C1CCCCN1CCCNc1nc(Nc2cc3c(cc2C(F)(F)F)CCNC3)ncc1C(F)(F)F [Example 45, 1-[3-[[5-(Trifluoromethyl)-2-[[6-(trifluoromethyl)-1,2,3,4-tetrahydroisoquinolin-7-yl]amino]pyrimidin-4-yl]amino]propyl]piperidin-2-one] |

| IC50 [µM] | SMILES |
| --- | --- |
| < 0.2 | CN1CCc2cc(Nc3ncc(C(F)(F)F)c(NCCCN4CCCCC4=O)n3)ccc2C1 [Example 7, 1-(3-((2-((2-Methyl-1,2,3,4-tetrahydroisoquinolin-6-yl)amino)-5-(trifluoromethyl)pyrimidin-4-yl)amino)propyl)piperidin-2-one] |
| < 0.2 | COc1cc2c(cc1Nc1ncc(C(F)(F)F)c(NCCCN3CCCCC3=O)n1)CN(C)CC2 [Example 24, 1-[3-[[2-[(6-Methoxy-2-methyl-3,4-dihydro-1H-isoquinolin-7-yl)amino]-5-(trifluoromethyl)pyrimidin-4-yl]amino]propyl]piperidin-2-one] |
| < 0.2 | CN1CCc2cc(Nc3ncc(C4CC4)c(NCCCN4CCCCC4=O)n3)ccc2C1 [Example 11, 1-(3-((5-Cyclopropyl-2-((2-methyl-1,2,3,4-tetrahydroisoquinolin-6-yl)amino)pyrimidin-4-yl)amino)propyl)piperidin-2-one] |
| < 0.2 | O=C(CCNc1nc(Nc2cc3c(cc2Cl)CNCC3)ncc1C(F)(F)F)N[C@@H](C1CC1)C(F)(F)F [Example 2, (S)-3-(2-(7-chloro-1,2,3,4-tetrahydroisoquinolin-6-ylamino)-5-(trifluoromethyl)pyrimidin-4-ylamino)-N-(1-cyclopropyl-2,2,2-trifluoroethyl)propanamide] |
| ≥ 1 | O=C1CCCCN1CCCNc1nc(Nc2cccc3c2OCC3)ncc1C(F)(F)F [Example 31, 1-[3-[[2-(2,3-Dihydrobenzofuran-7-ylamino)-5-(trifluoromethyl)pyrimidin-4-yl]amino]propyl]piperidin-2-one] |
| ≥ 1 | COc1cc2c(cc1Nc1ncc(C(F)(F)F)c(NCCCN3CCCCC3=O)n1)C(=O)NCC2 [Example 33, 6-Methoxy-7-[[4-[3-(2-oxo-1-piperidyl)propylamino]-5-(trifluoromethyl)pyrimidin-2-yl]amino]-3,4-dihydro-2H-isoquinolin-1-one] |
| ≥ 1 | CN(C)CCCNc1nc(Nc2cccc(OC3CCN(C)CC3)c2)ncc1C1CC1 [Example 84, 5-Cyclopropyl-N4-(3-(dimethylamino)propyl)-N2-(3-(1-methylpiperidin-4-yloxy)phenyl)pyrimidine-2,4-diamine] |
| < 0.2 | O=C1CCCN1CCCNc1nc(Nc2ccc3c(c2)CCNC3)ncc1C(F)(F)F [Example 66, 1-[3-[[2-(1,2,3,4-tetrahydroisoquinolin-6-ylamino)-5-(trifluoromethyl)pyrimidin-4-yl]amino]propyl]pyrrolidin-2-one] |
| 0.2 to 1 | COc1cc2c(cc1Nc1ncc(C(F)(F)F)c(NCC3CNCCO3)n1)CNCC2 (stereo not drawn) [Example 78, N2-(6-methoxy-1,2,3,4-tetrahydroisoquinolin-7-yl)-N4-(morpholin-2-ylmethyl)-5-(trifluoromethyl)pyrimidine-2,4-diamine] |
| < 0.2 | CN1CCc2cc(Nc3ncc(C4CC4)c(NC4CC4)n3)ccc2C1 [Example 17, N4,5-dicyclopropyl-N2-(2-methyl-1,2,3,4-tetrahydroisoquinolin-6-yl)pyrimidine-2,4-diamine] |
| ≥ 1 | COc1nn(CCN2CCOCC2)cc1Nc1ncc(C(F)(F)F)c(NCCCN2CCCCC2=O)n1 [Example 53, 1-[3-[[2-[[3-Methoxy-1-(2-morpholinoethyl)pyrazol-4-yl]amino]-5-(trifluoromethyl)pyrimidin-4-yl]amino]propyl]piperidin-2-one] |
| ≥ 1 | O=C1CCCN1CCCNc1nc(Nc2ccc3c(c2)CNCC3)ncc1C(F)(F)F [Example 77, 1-[3-[[2-(1,2,3,4-Tetrahydroisoquinolin-7-ylamino)-5-(trifluoromethyl)pyrimidin-4-yl]amino]propyl]pyrrolidin-2-one] |
| ≥ 1 | COc1cc(C(=O)N(C)C)ccc1Nc1ncc(C(F)(F)F)c(NCCCN2CCCCC2=O)n1 [Example 40, 3-Methoxy-N,N-dimethyl-4-[[4-[3-(2-oxo-1-piperidyl)propylamino]-5-(trifluoromethyl)pyrimidin-2-yl]amino]benzamide] |
| 0.2 to 1 | O=C1CCCCN1CCCNc1nc(Nc2cc(CN3CCOCC3)ccc2Cl)ncc1C(F)(F)F [Example 55, 1-[3-[[2-[2-Chloro-5-(morpholinomethyl)anilino]-5-(trifluoromethyl)pyrimidin-4-yl]amino]propyl]piperidin-2-one] |
| < 0.2 | COc1nn(CC(C)(C)O)cc1Nc1ncc(C(F)(F)F)c(NCCCN2CCCCC2=O)n1 [Example 28] |
| 0.2 to 1 | CN1CCc2cc(Nc3ncc(C(F)(F)F)c(NCCCN4CCCC4)n3)ccc2C1 [Example 6, N2-(2-methyl-1,2,3,4-tetrahydroisoquinolin-6-yl)-N4-(3-(pyrrolidin-1-yl)propyl)-5-(trifluoromethyl)pyrimidine-2,4-diamine] |
